Experimental data published in patent publication US6586461B1, “Prenyl transferase inhibitors” (Wayne State University, priority 1998, dated 2003).

Key:
[1] = test system: HPAC (human pancreatic adenocarcinoma cells); test: Proliferation of HPAC cells, Trypan Blue exclusion; format: cell-based; conditions: 48 hours
Experimental: The malignant human cell line HPAC (human pancreatic adenocarcinoma cells) was used in this study. The cells were seeded at a concentration of 2×10^5/ml in 24 well culture plate (Costar, Cambridge, Mass). […] Varying amounts of the stock solutions were then used to treat the HPAC cells. The final concentration of the farnesol analogs in the culture plate wells ranged from 0 nM (ethanol-treated control) to 500 nM. The plate was then incubated at 37° C. under a 5% CO2-humidified atmosphere for 48 hours. The total viable cells from each well were determined by Trypan Blue (0.4%) exclusion (Gibco, N.Y.) followed by cell counting.

[2] = test system: H-Ras-F cells; test: Proliferation of H-Ras-F cells (control experiments); format: cell-based
[3] = test system: H-Ras-F cells; test: Cell morphology of lovastatin-treated H-Ras-F cells; format: cell-based; conditions: 25 μM lovastatin 24 h, then analog 24 h
Experimental: (§1) It has been well established that levels of lovastatin that completely block the mevalonate pathway result in cell cycle blockade, significant cytotoxicity, and a sharp change in cell appearance to a rounded morphology. The effects of lovastatin on the cell morphology of H-Ras-F and H-Ras-GG cells treated with FPP, GGPP, 3-vFPP, 3-vGGPP, 3-alFPP, and 3-alGGPP were photographed and the results are shown on FIG. 9 (H-Ras-F) and 8 (H-Ras-GG), respectively. The H-Ras-F and H-Ras-GG cells were grown in six-well plates to 70-80% confluence. After treating the cells with lovastatin (25 μM) for 24 hour, the indicated FPP or GGPP analogs (re-suspended in media) were added directly to the cell media. Photographs were taken after an additional 24 hour incubation period.

[4] = molecular target: recombinant mFTase (affinity purified rat FPTase) (Rattus norvegicus, UniProt Q02293+Q04631); test: FTase scintillation proximity assay; format: biochemical; conditions: for IC50: recombinant mFTase, tritiated FPP 0.12 μM, peptide 0.1 μM; for FTase/GGTase: selectivity mFTase against mGGTase I
Experimental: (§2) The method is described in detail in Yokama, et al., J. Biol. Chem., Vol. 272, No. 7, pages 3944-3952 (February 1997). The FTase, tritiated FPP, and the peptide were incubated at 37° C. for 30 minutes in a buffer. After incubation, a stop reagent and streptavidin beads (Amersham) were added. The radioactive product was counted on a Wallac Microbeta 1450 scintillation counter. The kinetic fits were derived from a nonlinear least squares computer fit of the data. The Ki values were determined using the same assay system with varying concentrations of tritiated FPP.

[5] = test system: H-Ras-GG cells; test: Cell morphology of lovastatin-treated H-Ras-GG cells; format: cell-based; conditions: 25 μM lovastatin 24 h, then analog 24 h
Experimental: as §1

[6] = test system: H-Ras-GG in H-Ras-GG cells; test: Subcellular fractionation / Western blot of Ras in lovastatin-treated H-Ras-GG cells; format: cell-based
Experimental: H-Ras-F (A) or H-Ras-GG (B) cells were treated with 25 μM lovastatin for 24 h after which the indicated FPP or GGPP analogs (resuspended in media) were added directly to the cell media. Following an additional 24 h incubation period, the cells were harvested, lysed and the membranes (M) separated from the cytosol (C). After solubilization of the membrane fraction, Ras protein was immunoprecipitated from both the membrane and cytosolic fractions by the addition of the Y13-259 antibody (OP04 from Oncogene Science). The presence of Ras protein in each fraction was analyzed by Western transfer techniques. Incubation with the primary antibody (pan-ras Ab-2 from Oncogene Science) and an anti-mouse HRP conjugate secondary antibody (Amersham) was employed for detection of the ras protein. Blots were developed using Enhanced Chemiluminescence techniques (Amersham). The technique is described in detail by Scholten, et al., Bioorg. Med. Chem., Vol. 4, pages 1537-1543 (1992).
The selectivity and mechanism of the observed cell growth inhibition was further probed by studying the effects of the 3-vinyl and 3-allyl GGPP analogs on the subcellular distribution of the geranylgeranylated protein variant in H-Ras-GG cells in a manner similar to that described for 3-vFPP and 3-alFPP. The Western blot is shown on FIG. 8. With H-Ras-GG cells, as with H-Ras-F cells, blockage of the mevalonate pathway results in a shift in the subcellular location of the Ras protein from the membrane to the cytosol.

[7] = molecular target: recombinant mGGTase I (Homo sapiens, UniProt P49354+P53609); test: GGTase I scintillation proximity assay; format: biochemical; conditions: tritiated GGPP
Experimental: as §2
GGTase I values were determined in a similar manner using recombinant mGGTase I, tritiated GGPP, and the peptide Biotin-Aha-Thr-Lys-Cys-Val-Ile-Leu-OH.

[8] = test system: NIH 3T3 fibroblasts transfected with H-Ras(61 L) [H-Ras-F]; test: Soft agar anchorage-independent growth, H-Ras-F cells; format: cell-based; conditions: soft agar, 2 weeks; read-out: Mean IC50 (±S.E.) H-Ras-F
Experimental: (§3) Presumably, the non-polar alcohols pass through the cell membrane and are then diphosphorylated by an as yet uncharacterized kinase to FPP or GGPP.
(§4) The 3-substituted analogs were evaluated as inhibitors of the growth of ras-transformed cells by comparing their relative degree of activity against an isogenic panel of transformed cell lines, comprised of NIH 3T3 fibroblasts transfected with either H-Ras(61 L) [H-Ras-F], H-Ras(61 L)CVLL [H-Ras-GG], or a transforming form of c-raf [Raf]. The H-Ras-F, H-Ras-GG, and raf transformed NIH3T3 cell lines have been previously described in Cox, et al., Molecular and Cellular Biology, Vol. 12, No. 6, pages 2606-2615 (1992). The cells were grown prior to plating in Dulbecco's modified Eagle medium supplemented with 10% calf serum and 1% antibiotic/antimycotic at 37° C. and 10% CO2. Experiments were carried out in 6-well dishes in a two layer agar system (0.6% bottom layer and 0.3% top layer). Cells were incorporated into the top layer along with varying concentrations of the compound prepared in ethanol. Compound addition occurred only at the time the cells were seeded. Subsequent incubation was at 37° C. with 10% CO2 for 2 weeks. Colonies were stained with 0.5 ml/well of 1 mg/ml p-iodonitrotetrazolium violet (Sigma) for 24 hours prior to quantitation by image analysis.

[9] = test system: NIH 3T3 fibroblasts transfected with H-Ras(61 L)CVLL [H-Ras-GG]; test: Soft agar anchorage-independent growth, H-Ras-GG cells; format: cell-based; conditions: 2 weeks, read-out: Mean IC50 (±S.E.) H-Ras-GG
Experimental: as §3, §4

[10] = test system: NIH 3T3 fibroblasts transfected with a transforming form of c-raf [Raf]; test: Soft agar anchorage-independent growth, Raf cells; format: cell-based; conditions: 2 weeks, mean of two tests
Experimental: as §3, §4

[11] = test system: H-Ras-F cells; test: Incorporation of radiolabel into proteins of H-Ras-F cells; format: cell-based; conditions: 5 μM, 18 h, lovastatin-treated H-Ras-F cells
Experimental: H-Ras-F cells were treated with 25 μM lovastatin for 24 h after which the following were added directly to four samples of the cell media: (1) control-untreated, (2) 3-vinyl-1-[^3H]-farnesol (5 μM, 1.34 μCi/ml), (3) 1-[^3H]-FPP (3 μM, 50 μCi/ml; Amersham), and (4) 1-[^3H]-farnesol (3 μM, 50 μCi/ml; American Radiolabeled Chemicals). […] After drying, the membranes were sprayed with En^3Hance (Amersham) and exposed to film (Hyperfilm MP, Amersham) for a period of time prior to developing (4 days for 1-[^3H]-FPP and 1-[^3H]-farnesol) and 28 days for 3-vinyl-1-[^3H]-farnesol). The exposed films are shown on FIG. 8 where the control and radioactive bands are designated as indicated above.

3-Vinyl-7,11-dimethyldodeca-2(Z),6(E),10-trien-1-ol [3-vinyl Farnesol]
Effect on HPAC cells at 100 nM ([1]; 100 nM): cytostasis | Viable HPAC cell count at 100 nM ([1]; 100 nM, seeded 2×10^5/ml, control well 2.2×10^6 cells): ~2×10^5 /well | Effect on HPAC cells at 500 nM ([1]; listed as 3-Vinylfarnesol): complete cytotoxicity | Effect on HPAC cells at 500 nM ([1]; listed as 3-vinylfarnesol): potently cytotoxic | Effect on growth of H-Ras-F cells ([2]; concentration not given): complete inhibition of growth

3-vinyl geranylgeranyl diphosphate [Compound 3-vGGPP]
Reversal of rounded morphology of lovastatin-treated H-Ras-F cells [3]: restore the flattened morphology of cells | IC50 [4]: 0.715 µM | FTase/GGTase [4]: 4.3 | Restoration of flattened morphology of lovastatin-treated H-Ras-GG cells [5]: completely restore | Membrane localization of H-Ras-GG ([6]; H-Ras-GG cells, lovastatin-treated): resulted in restoration of the membrane localization of H-Ras-GG | IC50 [7]: 3.05 µM

C=C/C(=C\CO)CC/C=C(\C)CC/C=C(\C)CCC=C(C)C [3-vinyl Geranylgeraniol, 3-Vinyl-7,11,15-trimethylhexadeca-2(Z),6(E),10(E),14-tetraen-1-ol]
IC50 [8]: 18 ± 4.1 µM | Protein geranylgeranylation in cells ([6]; summary statement): restores protein geranylgeranylation in cells | IC50 [9]: 13.9 ± 2.3 µM | IC50 [10]: 5.6 µM

[3H]C(O)C=C(C=C)CCC=C(C)CCC=C(C)C (centres unmarked) [3-vinyl-1-[^3H]-farnesol]
Radiolabel incorporation into protein bands [11]: the radiolabel migrates with the same protein bands as seen when cells are treated with tritiated farnesol and FPP

C=CC/C(=C\COP(=O)(O)OP(=O)(O)O)CC/C=C(\C)CC/C=C(\C)CCC=C(C)C [Compound 3-alGGPP, 3-Allyl-7,11,15-trimethylhexadeca-2(Z),6(E),10(E),14-tetraene diphosphate]
Reversal of rounded morphology of lovastatin-treated H-Ras-F cells [3]: reversion in morphology | IC50 [4]: 0.453 µM | FTase/GGTase [4]: 7.5 | Restoration of flattened morphology of lovastatin-treated H-Ras-GG cells [5]: partially restore | IC50 [7]: 3.38 µM

CC(C)=CCCC(C)=CCCC(C)=CCO [farnesol, reference compound]
Effect on HPAC cells at 500 nM [1]: no effect | Effect on proliferation of H-Ras-F cells ([2]; 30 μM, data not shown): little effect
